Earlier results on two compounds are cited in patent US20020040034A1, “Methods for treating allergic asthma using descarboethoxyloratadine” (priority 1997, published 2002).

The subject of data set [1] is melanoma and fibrosarcoma tumors.
In data set [2] the test system is allergic bronchospasm. As to conditions: milligram by milligram basis.

Take `COc1ccc(CCN2CCC(Nc3nc4ccccc4n3Cc3ccc(F)cc3)CC2)cc1` [astemizole]: the “Association with tumor growth” value in data set [1] is “associated with growth of both melanoma and fibrosarcoma tumors”.
For the compound `CCOC(=O)N1CCC(=C2c3ccc(Cl)cc3CCc3cccnc32)CC1` [Loratadine], the “Inhibition of allergic bronchospasm, potency compared with terfenadine” value in data set [2] was “four times more potent than terfenadine”. In data set [1], the “Association with tumor growth” value is “associated with growth of both melanoma and fibrosarcoma tumors”.
